Values quoted from earlier work in patent publication US9677978B2, “Fixative solution, for fixation and preservation of biological samples” (priority 2011, dated 2017).

Conditions: in 20 months; commercial biocide solutions stabilized by antioxidants

## N#CC(Br)(Br)C(N)=O [DBPNA, 2,2-Dibromo-3-nitrilopropionamide]
  degradation of DBPNA: < 10%
